Laboratory results as given in ChEMBL document CHEMBL2176999, “Update on the development of antagonists of chemoattractant receptor-homologous molecule expressed on Th2 cells (CRTH2). From lead optimization to clinical proof-of-concept in asthma and allergic rhinitis” (J Med Chem, 2012).
One block for each compound: values may come before it.

Legend:
[1] = biological target: T1, Prostaglandin D2 receptor 2 (Homo sapiens, UniProt Q9Y5Y4)
T1 sequence (Q9Y5Y4 whole entry): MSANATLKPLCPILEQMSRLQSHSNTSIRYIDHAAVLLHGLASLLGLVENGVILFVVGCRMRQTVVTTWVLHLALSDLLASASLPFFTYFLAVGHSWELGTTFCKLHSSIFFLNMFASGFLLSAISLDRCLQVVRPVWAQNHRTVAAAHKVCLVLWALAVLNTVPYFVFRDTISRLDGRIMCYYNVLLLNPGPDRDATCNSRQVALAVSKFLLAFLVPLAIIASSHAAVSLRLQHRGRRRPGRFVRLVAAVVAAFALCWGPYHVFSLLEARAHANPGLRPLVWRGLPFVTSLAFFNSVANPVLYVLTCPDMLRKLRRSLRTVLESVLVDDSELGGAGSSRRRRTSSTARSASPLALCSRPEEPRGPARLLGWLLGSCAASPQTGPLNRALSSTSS
Description: Inhibition of CRTH2 in human whole blood

[2] = biological target: T1, Prostaglandin D2 receptor 2; test: Antagonistic activity at CRTH2 in human eosinophils assessed as inhibition of PGD2-induced calcium mobilization after 60 mins by Fluo-3 based fluorescence assay; type: functional
[3] = biological target: Sodium-dependent serotonin transporter (Homo sapiens, UniProt P31645); test: Inhibition of SERT
Chain of Sodium-dependent serotonin transporter (P31645 whole entry): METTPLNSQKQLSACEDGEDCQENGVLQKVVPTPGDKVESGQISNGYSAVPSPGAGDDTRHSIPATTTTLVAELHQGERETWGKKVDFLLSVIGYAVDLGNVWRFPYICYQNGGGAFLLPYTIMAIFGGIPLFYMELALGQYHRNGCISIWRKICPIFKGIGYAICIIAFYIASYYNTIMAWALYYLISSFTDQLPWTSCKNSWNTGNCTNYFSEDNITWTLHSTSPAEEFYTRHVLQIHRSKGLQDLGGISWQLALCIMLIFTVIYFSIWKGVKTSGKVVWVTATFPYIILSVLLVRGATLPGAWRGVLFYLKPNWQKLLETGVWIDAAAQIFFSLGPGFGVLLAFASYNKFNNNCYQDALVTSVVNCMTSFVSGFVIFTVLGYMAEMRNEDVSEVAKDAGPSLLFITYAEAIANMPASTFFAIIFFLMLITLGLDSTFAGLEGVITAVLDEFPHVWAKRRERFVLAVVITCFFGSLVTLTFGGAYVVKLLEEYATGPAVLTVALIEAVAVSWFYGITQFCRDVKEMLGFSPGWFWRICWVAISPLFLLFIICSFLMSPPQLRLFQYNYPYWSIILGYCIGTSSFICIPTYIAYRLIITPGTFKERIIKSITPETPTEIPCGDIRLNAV

[4] = biological target: T1, Prostaglandin D2 receptor 2; test: Displacement of [3H]PGD2 from CRTH2 expressed in CHO cells after 1 hr by beta counting analysis; type: cell-based
[5] = biological target: Aldo-keto reductase family 1 member B1 (Rattus norvegicus, UniProt P07943); test: Inhibition of rat aldose reductase
[6] = Oral bioavailability in rat; type: ADME, organism-based; settings: in vivo
in vivo = settings: rat
[7] = biological target: T1, Prostaglandin D2 receptor 2; test: Displacement of [3H]PGD2 from human CRTH2 expressed in HEK293 cells after 90 mins by TopCount analysis; type: cell-based
[8] = biological target: T1, Prostaglandin D2 receptor 2; test: Displacement of [3H]PGD2 from human CRTH2 expressed in K562 cells after 60 mins by scintillation counting in presence of 4% human serum albumin; type: cell-based
[9] = biological target: T1, Prostaglandin D2 receptor 2; test: Displacement of [3H]PGD2 from human CRTH2 expressed in K562 cells after 60 mins by scintillation counting; type: cell-based
[10] = biological target: T1, Prostaglandin D2 receptor 2; remark: listed apart in the source

SMILES: C[C@H]1C[C@@H](N(C(=O)CCC(=O)O)c2ccccc2)c2ccccc2N1C(=O)c1ccccc1
IC50 [1]: 0.77 nM

SMILES: Cc1c(CC(=O)O)c2cc(F)ccc2n1Cc1ccc2ccccc2c1
Ki [2]: 9 nM

SMILES: Cc1c(CC(=O)O)c2cc(F)ccc2n1S(=O)(=O)c1ccc(S(C)(=O)=O)cc1
IC50 [1]: 106 nM

SMILES: O=C(O)Cn1c2c(c3cc(F)ccc31)C[C@H](NC(=O)CC(c1ccccc1)c1ccccc1)CC2
IC50 [7]: 2 nM

SMILES: O=C(Nc1cccc(-c2ccc(Cl)cc2)n1)c1ccc(Oc2cc3c(cc2Cl)[C@H](C(=O)O)CCO3)cc1
IC50 [8]: 22 nM

SMILES: Cc1cc(CC(=O)O)c2c(C)c(Cc3ccccc3)c(=O)oc2c1
Ki [9]: 32 nM

SMILES: CCc1nc2c(F)ccc(OCC(=O)O)c2c(OC(F)F)c1Cc1ccc(-n2cccn2)cc1
Ki [9]: 5.4 nM

SMILES: CCN(Cc1cc(C(F)(F)F)ccc1-c1cc(CC(=O)O)ccc1OC)C(=O)C1CC1
IC50 [1]: 6.5 nM | Ki [10]: 13.5 nM

SMILES: O=C(O)Cc1ccc(Oc2ccc(NC(=O)c3ccc(Cl)c(Cl)c3)cc2)c(CNS(=O)(=O)c2ccc(F)cc2)c1
Ki [10]: < 1000 nM

SMILES: CCc1c(CC(=O)O)c(C2CC2)nn1Cc1ccc(NC(=O)c2ccc(C(F)(F)F)cc2)cc1
Ki [10]: 0.5 nM

SMILES: Cc1c(CC(=O)O)c2cc(F)ccc2n1Cc1nc2ccccc2s1
Ki [2]: 44 nM | IC50 [1]: 2400 nM

SMILES: CN(C(=O)C1(C)CCc2c(c3ccccc3n2CC(=O)O)C1)c1cccc(Cl)c1 (stereo unspecified)
IC50 [7]: 1 nM

Second part, the compound after the results:

Ki [3]: 143 nM | Ki [4]: 143 nM
SMILES: Cc1c(Sc2ccc(Cl)cc2)c2ncccc2n1CC(=O)O

IC50 [5]: 550 nM | bioavailability [6]: 100% | half-life (in vivo): 3.5 h
SMILES: Cc1c(Cc2ccc3ccccc3n2)c2cc(F)ccc2n1CC(=O)O [TIMAPIPRANT]

IC50 [3]: 2000 nM
SMILES: Cc1ccc2c(c1)c(-c1ccnc3c(C)cccc13)c(C)n2CC(=O)O

IC50 [1]: 343 nM
SMILES: Cc1c(Cc2nc3ccccc3s2)c2cc(F)ccc2n1CC(=O)O

Ki [10]: 58 nM
SMILES: Cc1c(Sc2ccc(Cl)cc2)c2c(Cl)nccc2n1CC(=O)O

Ki [2]: 15 nM | IC50 [1]: 812 nM
SMILES: Cc1c(Cc2ccc3ccccc3c2)c2cc(F)ccc2n1CC(=O)O

IC50 [1]: 8 nM
SMILES: Cc1c(Cc2ccc(S(C)(=O)=O)cc2)c2cc(F)ccc2n1CC(=O)O

Ki [10]: 106 nM
SMILES: Cc1c(Sc2ccc(Cl)cc2)c2cc(Cl)ncc2n1CC(=O)O
